Measurements from patent US12157730B2, “Heteroaryl derivative, method for producing same, and pharmaceutical composition comprising same as effective component” (VORONOI INC., priority 2019, dated 2024).

Target: T1, Ba/F3 cell EGFR Exon20 ins NPH (Homo sapiens, UniProt P00533, INS773NPH)
T1 construct: expressed in transfected cells; host or cells: Ba/F3
Assay: Ba/F3 cell proliferation suppression, EGFR Exon20 ins NPH
Format: cell-based
Settings: GI50 class; Ba/F3 cell line with NPH inserted at Exon20 of EGFR; 72 hours
Method in brief: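 Cells (3000–5000/well) plated 24 h before compound, 12-point 3-fold dilutions at 0.3 nM to 50 um final; Ba/F3 lines grown with 5 ng/ml IL-3. Viability by CellTiter-Glo luminescence after 72 h, growth ratio vs control, GI50 from curves; triplicate.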

Ba/F3 (NPH) Activity | Structure (SMILES)
B (50 nM ≤ GI50 < 500 nM) | C=CC(=O)Nc1cc(Nc2cc(N3OCC[C@@H]3c3cccc(OC)c3)ncn2)c(OC)cc1N1CCN(C2COC2)CC1 [compound 730, N-(4-methoxy-5-((6-((R)-3-(3-methoxyphenyl)isoxazolidine-2-yl)pyrimidine-4-yl)amino)-2-(4-(oxetane-3-yl)piperazine-1-yl)phenyl) acrylamide]
A (GI50 < 50 nM) | C=CC(=O)Nc1cc(Nc2cc(N3OCC[C@@H]3c3cc(F)ccc3F)ncn2)c(OC)cc1N1CCC(N2CC[C@H](N(C)C)C2)CC1 [compound 816, N-(5-((6-((R)-3-(2,5-difluorophenyl)isoxazolidine-2-yl)pyrimidine-4-yl)amino)-2-(4-((S)-3-(dimethylamino)pyrolidine-1-yl)piperidine-1-yl)-4-methoxyphenyl) acrylamide]
A (GI50 < 50 nM) | C=CC(=O)Nc1cc(Nc2cc(N3OCC[C@@H]3c3cccc(C#N)c3)ncn2)c(OC)cc1N1CCC(N2CCN(C3CC3)[C@H](C)C2)CC1 [Example 126, N-(5-((6-((R)-3-(3-cyanophenyl)isoxazolidine-2-yl)pyrimidine-4-yl)amino)-2-(4-((R)-4-cyclopropyl-3-methylpiperazine-1-yl)piperidine-1-yl)-4-methoxyphenyl) acrylamide]
A (GI50 < 50 nM) | C=CC(=O)Nc1cc(Nc2cc(N3OCC[C@@H]3Cc3cccc(Cl)c3Cl)ncn2)c(OC)cc1N1CCC(N2CCN(C(C)C)CC2)CC1 [compound 1015, N-(5-((6-((S)-3-(2,3-dichlorobenzyl)isoxazolidine-2-yl)pyrimidine-4-yl)amino)-2-(4-(4-isopropylpiperazine-1-yl)piperidine-1-yl)-4-methoxyphenyl) acrylamide]
A (GI50 < 50 nM) | COc1cc(N2CCC(N3CCN(C4CC4)CC3)CC2)c(NC(=O)/C=C/CN(C)C)cc1Nc1cc(N2OCC[C@@H]2c2cc(F)cc(F)c2)ncn1 [Example 117, N-(2-(4-(4-cyclopropylpiperazine-1-yl)piperidine-1-yl)-5-((6-((R)-3-(3,5-difluorophenyl)isoxazolidine-2-yl)pyrimidine-4-yl)amino)-4-methoxyphenyl)-(E)-4-(dimethylamino) but-2-enamide]
C (500 nM ≤ GI50 < 5000 nM) | C=CC(=O)Nc1cc(Nc2cc(N3OCC[C@H]3c3cc(F)cc(F)c3)ncn2)c(OC)cc1N1CCC(N2CCN(C3CC3)CC2)CC1 [Example 118]
A (GI50 < 50 nM) | C=CC(=O)Nc1cc(Nc2cc(N3OCC[C@@H]3c3cccc(Cl)c3C)ncn2)c(OC)cc1N1CCC(N2C[C@@H](C)O[C@@H](C)C2)CC1 [compound 528, N-(5-((6-((R)-3-(3-chloro-2-methylphenyl)isoxazolidine-2-yl)pyrimidine-4-yl)amino)-2-(4-((2S,6R)-2,6-dimethylmorpholino)piperidine-1-yl)-4-methoxyphenyl) acrylamide]
A (GI50 < 50 nM) | C=CCN1CCN(C2CCN(c3cc(OC)c(Nc4cc(N5OCC[C@@H]5Cc5cccc(Cl)c5Cl)ncn4)cc3NC(=O)C=C)CC2)CC1 [compound 1024, N-(2-(4-(4-allylpiperazine-1-yl)piperidine-1-yl)-5-((6-((S)-3-(2,3-dichlorobenzyl)isoxazolidine-2-yl)pyrimidine-4-yl)amino)-4-methoxyphenyl) acrylamide]
B (50 nM ≤ GI50 < 500 nM) | C=CC(=O)Nc1cc(Nc2cc(N3OCC[C@@H]3c3cccc(C(F)(F)F)c3)ncn2)c(OC)cc1N1CC[C@H](N2CCOCC2)C1 [compound 507, N-(4-methoxy-2-((S)-3-morpholinopyrolidine-1-yl)-5-((6-((R)-3-(3-(trifluoromethyl)phenyl)isoxazolidine-2-yl)pyrimidine-4-yl)amino)phenyl)acrylamide]
A (GI50 < 50 nM) | C=CC(=O)Nc1cc(Nc2cc(N3OCC[C@@H]3c3cc(F)ccc3F)ncn2)c(OC)cc1N1CCC(N2CCC3(CC2)CC3)CC1 [compound 828, N-(2-(4-(6-azaspiro[2.5]octan-6-yl)piperidine-1-yl)-5-((6-((R)-3-(2,5-difluorophenyl)isoxazolidine-2-yl)pyrimidine-4-yl)amino)-4-methoxyphenyl) acrylamide]
A (GI50 < 50 nM) | C=CC(=O)Nc1cc(Nc2cc(N3OCC[C@@H]3c3ccc(Cl)c(F)c3)ncn2)c(OC)cc1N1CCC(N2C[C@H]3C[C@@H]2CN3CC)CC1 [compound 859, N-(5-((6-((R)-3-(4-chloro-3-fluorophenyl)isoxazolidine-2-yl)pyrimidine-4-yl)amino)-2-(4-((1R,4R)-5-ethyl-2,5-diazabicyclo [2.2.1]heptane-2-yl)piperidine-1-yl)-4-methoxyphenyl) acrylamide]
A (GI50 < 50 nM) | C=CC(=O)Nc1cc(Nc2cc(N3OCC[C@@H]3c3cccc(C#N)c3)ncn2)c(OC)cc1N1C[C@@H]2CCN(C)[C@@H]2C1 [compound 332, N-(5-((6-((R)-3-(3-cyanophenyl)isoxazolidine-2-yl)pyrimidine-4-yl)amino)-4-methoxy-2-((3aS,6aS)-1-methylhexahydropyrrolo [3,4-b]pyrrole-5(1H)-yl)phenyl)acrylamide]
A (GI50 < 50 nM) | C=CC(=O)Nc1cc(Nc2cc(N3OCC[C@@H]3c3cccc(F)c3Cl)ncn2)c(OC)cc1N1CCC(N2CCN(C(C)C)CC2)CC1 [compound 661, N-(5-((6-((R)-3-(2-chloro-3-fluorophenyl)isoxazolidine-2-yl)pyrimidine-4-yl)amino)-2-(4-(4-isopropylpiperazine-1-yl)piperidine-1-yl)-4-methoxyphenyl) acrylamide]
A (GI50 < 50 nM) | C=CC(=O)Nc1cc(Nc2cc(N3OCC[C@@H]3c3cccs3)ncn2)c(OC)cc1N1CCC(N2C[C@H]3C[C@@H]2CO3)CC1 [compound 930, N-(2-(4-((1R,4R)-2-oxa-5-azabicyclo [2.2.1]heptane-5-yl)piperidine-1-yl)-4-methoxy-5-((6-((R)-3-(thiophene-2-yl)isoxazolidine-2-yl)pyrimidine-4-yl)amino)phenyl)acrylamide]
A (GI50 < 50 nM) | C=CC(=O)Nc1cc(Nc2cc(N3OCC[C@@H]3c3cccc(F)c3)ncn2)c(OC)cc1N1CC[C@@H](N(C)C)C1 [Example 247, N-(2-((R)-3-(dimethylamino)pyrolidine-1-yl)-5-((6-((R)-3-(3-fluorophenyl)isoxazolidine-2-yl)pyrimidine-4-yl)amino)-4-methoxyphenyl) acrylamide]
A (GI50 < 50 nM) | C=CC(=O)Nc1cc(Nc2cc(N3OCC[C@@H]3c3cccc(C(F)(F)F)c3)ncn2)c(OC)cc1N1CCC(N2CCOCC2)CC1 [compound 504, N-(4-methoxy-2-(4-morpholinopiperidine-1-yl)-5-((6-((R)-3-(3-(trifluoromethyl)phenyl)isoxazolidine-2-yl)pyrimidine-4-yl)amino)phenyl)acrylamide]
A (GI50 < 50 nM) | C=CC(=O)Nc1cc(Nc2cc(N3OCC[C@@H]3c3cc(F)cc(F)c3)ncn2)c(OC)cc1N1CCC(N2CC3(COC3)C2)CC1 [Example 103, N-(2-(4-(2-oxa-6-azaspiro[3.3]heptane-6-yl)piperidine-1-yl)-5-((6-((R)-3-(3,5-difluorophenyl)isoxazolidine-2-yl)pyrimidine-4-yl)amino)-4-methoxyphenyl) acrylamide]
A (GI50 < 50 nM) | C=CC(=O)Nc1cc(Nc2cc(N3OCC[C@@H]3c3ccc(F)c(F)c3)ncn2)c(OC)cc1N1CCC(N(C)C)CC1 [compound 459, N-(5-((6-((R)-3-(3,4-difluorophenyl)isoxazolidine-2-yl)pyrimidine-4-yl)amino)-2-(4-(dimethylamino)piperidine-1-yl)-4-methoxyphenyl) acrylamide]
A (GI50 < 50 nM) | C=CC(=O)Nc1cc(Nc2cc(N3OCC[C@@H]3Cc3ccccc3)ncn2)c(OC)cc1N1CCN(CC2CC2)CC1 [compound 959, N-(5-((6-((S)-3-benzylisoxazolidine-2-yl)pyrimidine-4-yl)amino)-2-(4-(cyclopropylmethyl)piperazine-1-yl)-4-methoxyphenyl) acrylamide]
A (GI50 < 50 nM) | C=CC(=O)Nc1cc(Nc2cc(N3OCC[C@@H]3Cc3cccc(Cl)c3F)ncn2)c(OC)cc1N1CCC(N2C[C@@H]3C[C@H]2CO3)CC1 [compound 1022, N-(2-(4-((1S,4S)-2-oxa-5-azabicyclo [2.2.1]heptane-5-yl)piperidine-1-yl)-5-((6-((S)-3-(3-chloro-2-fluorobenzyl)isoxazolidine-2-yl)pyrimidine-4-yl)amino)-4-methoxyphenyl) acrylamide]
B (50 nM ≤ GI50 < 500 nM) | C=CC(=O)Nc1cc(Nc2cc(N3OCC[C@@H]3c3cccc(C#N)c3)ncn2)c(OC)cc1N1CCC(N2CC[C@H](N(C)C)C2)CC1 [compound 435, N-(5-((6-((R)-3-(3-cyanophenyl)isoxazolidine-2-yl)pyrimidine-4-yl)amino)-2-(4-((S)-3-(dimethylamino)pyrolidine-1-yl)piperidine-1-yl)-4-methoxyphenyl) acrylamide]
B (50 nM ≤ GI50 < 500 nM) | C=CC(=O)Nc1cc(Nc2cc(N3OCC[C@@H]3c3cc(F)ccc3F)ncn2)c(OC)cc1N1CC[C@H](N2CCOCC2)C1 [compound 302, N-(5-((6-((R)-3-(2,5-difluorophenyl)isoxazolidine-2-yl)pyrimidine-4-yl)amino)-4-methoxy-2-((S)-3-morpholinopyrolidine-1-yl)phenyl)acrylamide]
A (GI50 < 50 nM) | C=CC(=O)Nc1cc(Nc2cc(N3OCC[C@@H]3c3c(F)ccc(F)c3F)ncn2)c(OC)cc1N1CCC(N2CCN(C3CCC3)CC2)CC1 [Example 194, N-(2-(4-(4-cyclobutylpiperazine-1-yl)piperidine-1-yl)-4-methoxy-5-((6-((R)-3-(2,3,6-trifluorophenyl)isoxazolidine-2-yl)pyrimidine-4-yl)amino)phenyl)acrylamide]
